Measurements published in publication PMC5149019, “Synthesis, Characterization and Cytotoxicity of Alkylated Quercetin Derivatives” (Iranian Journal of Pharmaceutical Research : IJPR, 2016).
≈ marks a conversion by molar mass, not a printed value.

Tests used:
[1] = test system: cancer cells; settings: cited from earlier work
[2] = Solubility in DMEM medium by turbidimetry; type: physicochemical; settings: turbidimetry at 630 nm; for solubility at 48 h: 37 °C, aqueous buffer, kinetic from dmso stock
Method: Solubility of the derivatives was evaluated by turbidimetry as previously described ([7]). Briefly, derivatives were dissolved in DMSO at a final concentration of 50 mM, and then diluted by DMEM medium at final concentrations of 20, 40, 60, 80, 100, 120, 140, 160, 180 and 200 μM. After these solutions were incubated at 37 ℃ for 48 h, absorbances of them at 630 nm were measured.

[3] = test system: MCF-7 cells; assay: MTT cytotoxicity assay, MCF-7 cells; type: cell-based, human; settings: for IC50: Homo sapiens, MCF7, MCF-7 cells, 48 h exposure, MTT
Method: (§1) Taking solubility of the derivatives into consideration, BQ and GQ were selected for the primary cytotoxicity study. According to the result of the primary cytotoxicity study, the cytotoxicity of GQ on NCI-H446, A549, MGC-803 and SGC-7901 cell lines was further investigated. To justify the effectiveness of BQ and GQ, cytotoxicity of the parent compound quercetin on all the cell lines used in this study was determined either. Briefly, 8000 cells with 0.1 mL medium were seeded in 96-well microplates. The derivatives or quercetin were dissolved in DMSO (50 mM) and then diluted with the medium to a series of testing concentrations. After exposure to the derivatives or quercetin for 48 h, cells were carefully washed by PBS three times and then 0.1 mL MTT (0.5 mg/mL) was added to each well. DMSO was used as solvent for following spectrum analysis at 570 nm. Proliferation values were calculated with the formula as follow: proliferation = (Atest-Ablank)/(Acontrol-Ablank). According to the proliferation data, all IC50 values were calculated by SPSS software using probit regression assay.

[4] = test system: Caco-2 cells; assay: MTT cytotoxicity assay, Caco-2 cells; type: cell-based; settings: Homo sapiens, 48 h exposure
Method: as §1

[5] = test system: NCI-H446; assay: MTT cytotoxicity assay, NCI-H446 cells; type: cell-based; settings: Homo sapiens, 48 h exposure
Method: as §1

[6] = test system: SGC-7901; assay: MTT cytotoxicity assay, SGC-7901 cells; type: cell-based; settings: Homo sapiens, 48 h exposure
Method: as §1

[7] = test system: MGC-803; assay: MTT cytotoxicity assay, MGC-803 cells; type: cell-based; settings: Homo sapiens, 48 h exposure
Method: as §1

[8] = test system: A549; assay: MTT cytotoxicity assay, A549 cells; type: cell-based; settings: Homo sapiens, 48 h exposure
Method: as §1

[9] = compared with quercetin, ref [5]

In the case of `CC(=O)Oc1cc(O)c2c(=O)c(OC(C)=O)c(-c3ccc(OC(C)=O)c(OC(C)=O)c3)oc2c1` [3,7,3′,4′-O-tetraacetylquercetin], the “cytotoxicity compared with quercetin” value [1, 9] is listed as “about 3 fold”.
For `COc1cc(O)c2c(=O)c(OC)c(-c3ccc(OC)c(OC)c3)oc2c1` [3,7,3′,4′-O-tetramethylquercetin], the “cytotoxicity compared with quercetin (in words)” value [1, 9] is listed as “decreases the cytotoxicity”.
With `C=CCOc1cc(O)c2c(=O)c(O)c(-c3ccc(O)c(O)c3)oc2c1` [AQ, 7-O-allylquercetin] the solubility at 48 h [2] was about 140 µM (≈ 47.9 µg/mL) and the “inhibition rate to MCF-7 cells” value ([3]; at the highest concentration) was “less than 50%”.
For `CCCCOc1cc(O)c2c(=O)c(O)c(-c3ccc(O)c(O)c3)oc2c1` [BQ, 7-O-Butylquercetin], the solubility at 48 h [2] was about 180 µM (≈ 64.5 µg/mL), the IC50 [4] was 66.8 µM and the IC50 [3] was 38.6 µM.
With `O=c1c(O)c(-c2ccc(O)c(O)c2)oc2cc(OCC=Cc3ccccc3)cc(O)c12` [CQ, 7-O-cinnamylquercetin] the “solubility in DMEM medium (in words)” value ([2]; 37 ℃, 48 h) was “almost insoluble”.
Work on `CC(C)=CCC/C(C)=C/COc1cc(O)c2c(=O)c(O)c(-c3ccc(O)c(O)c3)oc2c1` [GQ, 7-O-geranylquercetin] yielded an IC50 [5] of 27.6 µM, an IC50 [6] of 18.5 µM and an IC50 [7] of 25.4 µM. The solubility at 48 h [2] was about 180 µM (≈ 78.9 µg/mL), the IC50 [4] was 43.7 µM and the IC50 [3] was 20.2 µM. It also gave an IC50 [8] of 29.5 µM.
`O=c1c(O)c(-c2ccc(O)c(O)c2)oc2cc(O)cc(O)c12` [Quercetin] gave an IC50 [5] of 68.9 µM, an IC50 [6] of 75.7 µM and an IC50 [7] of 80.6 µM. It also gave an IC50 [4] of 340 µM, an IC50 [3] of 343 µM and an IC50 [8] of 77.2 µM.
For `O=c1c(O)c(-c2cc(O)c(O)c(S(=O)(=O)O)c2)oc2c(S(=O)(=O)O)c(O)cc(O)c12` [quercetin-5′,8-disulfonate], the “increased cytotoxicity relative to quercetin” value ([1]; relative to quercetin, ref [4]) is given as “about 1.5 fold”.
